Patent US4323550A, “Halogenohydrates of N,N-disubstituted derivatives of piperazine having anticariogenic properties” (priority 1976, dated 1982)

How the values were obtained:
[1] = pH of the difluorohydrate solution; assay type: physicochemical; details: solution titering 1.23% fluorine
Procedure: The radioactive solutions are obtained by dissolving 69 mg of the difluorohydrate and 81.3 mg of NaF, respectively, in 1 and 3 ml of fluorine 18 solution without entrainer. Thus solutions titering 1.23% fluorine are obtained.
As the difluorohydrate solution is already at pH=3.5, it is sufficient to acidify the NaF solution by addition of about 0.2 ml hydrochloric acid 6 M, to 3 ml of the radioactive solution.

Hygroscopicity = assay type: physicochemical; details: crystals
[2] = Ionizable fluorine content; assay type: physicochemical
rats = experiment: in vivo; assay type: in vivo; details: rat; for Deaths: oral
Procedure: (§1) By way of example there are described below the comparative tests made on difluorohydrate of N,N'-di(hydroxyethyl) piperazine and on fluorohydrate of hexadecylamine or "ELMEX 242".
(§2) The acute toxidity was studies in rats and in mice.
(§3) The animals came from a homogeneous breed. The mice weighed between 19 and 21 g and the rats weighed from 120 to 140 g. The mice were grouped in lots of 10 and the rats in lots of 8.
(§4) The administrations took place orally at a volume of 0.5 ml per 20 g of mouse and 1 ml per 100 g of rat. The LD50 was determined by the method of Lichfield and Wilcoxon.
(§5) As regards the difluorohydrate of N,N'-di(hydroxyethyl) piperazine, the administered solution was prepared by diluting the mother solution to 65.4%, the dilutions being made after having weighed this solution. The administered dose is expressed by weight, taking account of the indicated strength of this solution.
(§6) For the solid "ELMEX 242" an aqueous suspension was prepared with the aid of solubilizing agents (e.g. Tween-polyoxyethylene sorbitan monolaurate). A very thick suspension is then obtained which tends to foam heavily, is difficult to get into the esophageal sound, and the determination of its volume is rendered difficult by the foam.
(§7) The results obtained with the "ELMEX" are therefore rather approximate.

in vivo = assay type: in vivo; details: in vivo; rat, oral; Lichfield and Wilcoxon
Procedure: as §1, §2, §3, §4, §5, §6, §7

mice = experiment: Acute oral toxicity in mice; assay type: in vivo
Procedure: as §1, §2, §3, §4, §5, §6, §7

[3] = Acute oral toxicity in mice; assay type: in vivo; details: in vivo, mouse, read-out: dose up to which no symptom occurs
Procedure: as §1, §2, §3, §4, §5, §6, §7

## OCCN1CCN(CCO)CC1 [DIFLUOROHYDRATE OF N,N'-DI(HYDROXY-ETHYL) PIPERAZINE]
[1]
  pH of the solution: 3.5
Hygroscopicity
  hygroscopicity: very hygroscopic
Hygroscopicity; listed as difluorohydrate
  hygroscopicity: particularly hygroscopic
[2]
  ionizable fluorine content: 15.18%
rats; in vivo, po
  symptoms / behavior: Some diarrhea and some trembling appear.
rats; 250 mg/kg, D + 1, 8 per lot
  Deaths: 0
rats; 250 mg/kg, D + 2, 8 per lot
  Deaths: 0
rats; 250 mg/kg, D + 5, 8 per lot
  Deaths: 0
rats; 250 mg/kg, D + 10, 8 per lot
  Deaths: 0
rats; 500 mg/kg, D + 1, 8 per lot
  Deaths: 0
rats; 500 mg/kg, D + 2, 8 per lot
  Deaths: 0
rats; 500 mg/kg, D + 5, 8 per lot
  Deaths: 0
rats; 500 mg/kg, D + 10, 8 per lot
  Deaths: 0
rats; 750 mg/kg, D + 1, 8 per lot
  Deaths: 1
rats; 750 mg/kg, D + 2, 8 per lot
  Deaths: 3
rats; 750 mg/kg, D + 5, 8 per lot
  Deaths: 4
rats; 750 mg/kg, D + 10, 8 per lot
  Deaths: 4
rats; 1000 mg/kg, D + 1, 8 per lot
  Deaths: 2
rats; 1000 mg/kg, D + 2, 8 per lot
  Deaths: 5
rats; 1000 mg/kg, D + 5, 8 per lot
  Deaths: 6
rats; 1000 mg/kg, D + 10, 8 per lot
  Deaths: 6
rats; 1250 mg/kg, D + 1, 8 per lot
  Deaths: 5
rats; 1250 mg/kg, D + 2, 8 per lot
  Deaths: 7
rats; 1250 mg/kg, D + 5, 8 per lot
  Deaths: 8
rats; 1250 mg/kg, D + 10, 8 per lot
  Deaths: 8
In vivo
  LD50 at 240 h: 790 mg/kg
mice; conclusion from mouse and rat, solution versus suspension
  toxicity compared with ELMEX 242: clearly more toxic than "ELMEX 242"
mice; mouse
  course: death and recovery: Death occurs after one hour at the highest doses.
  symptoms: At higher doses the mice are totally immobile. They show light trembling, but over the entire body, also diarrhea.
mice; mouse, 200 mg/kg, D + 1, 10 per lot
  Deaths: 0
mice; mouse, 200 mg/kg, D + 2, 10 per lot
  Deaths: 0
mice; mouse, 200 mg/kg, D + 5, 10 per lot
  Deaths: 0
mice; mouse, 200 mg/kg, D + 10, 10 per lot
  Deaths: 0
mice; mouse, 300 mg/kg, D + 1, 10 per lot
  Deaths: 0
mice; mouse, 300 mg/kg, D + 2, 10 per lot
  Deaths: 0
mice; mouse, 300 mg/kg, D + 5, 10 per lot
  Deaths: 0
mice; mouse, 300 mg/kg, D + 10, 10 per lot
  Deaths: 0
mice; mouse, 400 mg/kg, D + 1, 10 per lot
  Deaths: 2
mice; mouse, 400 mg/kg, D + 2, 10 per lot
  Deaths: 3
mice; mouse, 400 mg/kg, D + 5, 10 per lot
  Deaths: 3
mice; mouse, 400 mg/kg, D + 10, 10 per lot
  Deaths: 3
mice; mouse, 500 mg/kg, D + 1, 10 per lot
  Deaths: 3
mice; mouse, 500 mg/kg, D + 2, 10 per lot
  Deaths: 5
mice; mouse, 500 mg/kg, D + 5, 10 per lot
  Deaths: 5
mice; mouse, 500 mg/kg, D + 10, 10 per lot
  Deaths: 5
mice; mouse, 600 mg/kg, D + 1, 10 per lot
  Deaths: 4
mice; mouse, 600 mg/kg, D + 2, 10 per lot
  Deaths: 7
mice; mouse, 600 mg/kg, D + 5, 10 per lot
  Deaths: 8
mice; mouse, 600 mg/kg, D + 10, 10 per lot
  Deaths: 8
mice; mouse, 700 mg/kg, D + 1, 10 per lot
  Deaths: 9
mice; mouse, 700 mg/kg, D + 2, 10 per lot
  Deaths: 10
mice; mouse, 700 mg/kg, D + 5, 10 per lot
  Deaths: 10
mice; mouse, 700 mg/kg, D + 10, 10 per lot
  Deaths: 10
mice; mouse, 800 mg/kg, D + 1, 10 per lot
  Deaths: 7
mice; mouse, 800 mg/kg, D + 2, 10 per lot
  Deaths: 8
mice; mouse, 800 mg/kg, D + 5, 10 per lot
  Deaths: 9
mice; mouse, 800 mg/kg, D + 10, 10 per lot
  Deaths: 9
mice; mouse, 1000 mg/kg, D + 1, 10 per lot
  Deaths: 10
mice; mouse, 1000 mg/kg, D + 2, 10 per lot
  Deaths: 10
mice; mouse, 1000 mg/kg, D + 5, 10 per lot
  Deaths: 10
mice; mouse, 1000 mg/kg, D + 10, 10 per lot
  Deaths: 10
mice; mouse, doses above 400 mg/kg
  persistence of the ill state: at least 24 hours
  time to onset of coma: about 45 minutes
[3]
  NOAEL at 240 h: ≥ 400 mg/kg
